Test results taken from patent US6512166B1, “Combinations of fungal cell wall degrading enzyme and fungal cell membrane affecting compound” (priority 1991, dated 2003).
Where two headings read alike, the source gives them in different places.

Assays:
[1] = Solubility, guidance for forming solutions
Source text: Compositions for use in the systems herein are readily formulated by admixing the fungal cell wall degrading enzymes and the antifungal fungal cell membrane affecting compounds with non-toxic carriers appropriate for the particular use for a composition, e.g., agriculturally acceptable carriers for agricultural uses and pharmaceutically acceptable carriers for medicinal uses. They may be formulated as liquids (solutions or suspensions) or as solids. Since the fungal cell wall degrading enzymes need free water for activity, water must be present at the time of function. […] Water is a preferred vehicle where components are soluble in it. […] Organic solvents can also be used and may be required in some cases if a solution is desired. Guidance for forming solutions follows. […] Suspension can also be employed.

B. cinerea strain 12 = test: Inhibition of spore germination, ELISA plate assay (Examples III-XVI, XVIII); format: cell-based, Botrytis cinerea; conditions: Table 20; concentration of flusilazole for 50% inhibition, alone or with enzyme at its ED10 concentration
Experimental: (§1) The concentration where fungal cell wall degrading enzyme individually provides a specified percentage fungal inhibition or where antifungal fungal cell membrane affecting compound individually provides a specific percentage fungal inhibition can be determined as follows: Assays are performed under sterile conditions. Equal volumes of spore suspensions, 3× potato dextrose broth, and the test solution or suspension in 5 mM Tris-HCl (pH 6.0) or 5 mM potassium phosphate buffer (pH 6.7) are mixed. The control is the same as the test solution except for the control the antifungal agent is omitted. The assay mixtures (total volume 45 or 30 μl) are incubated on flat-bottomed ELISA plates, each containing 96 wells, with 2,000 to 3,000 spores per well, at 25° C. After 22 to 30 hours, the plates are placed under an inverted microscope. The percentage of conidia germinating is determined as the percentage of the first 100 spores randomly found in a well. In addition, the lengths of 20 germ tubes are measured and averaged. All experiments are performed twice, with three replicates for each treatment. The inhibition values obtained in the two experiments are combined and averaged, and standard deviations are calculated from the 6 data points. The values obtained for the control are taken as 0% inhibition and all other values are divided by the values obtained for the control and multiplied by 100% to obtain percent inhibition. Determination of concentration corresponding to a particular percent inhibition is carried out by subjecting dose-response curves to regression analysis by using a binomial regression of the third order, with R^2 ranging between 0.95 and 0.99.
(§2) Assays were carried out by the procedure described in the summary of the invention section. Dose response curves were obtained by probit analysis of data collected from two separate experiments with each experiment involving three treatment replicates.
Each of 8 antifungal fungal cell membrane affecting compounds were used in combination with each of 8 or 6 fungal cell wall degrading enzymes to provide 50% inhibition (ED50) of B. cinerea strain 12 spore germination. Each fungal cell wall degrading enzyme was used at a concentration giving 10% inhibition of spore germination when used alone in combination with an amount of antifungal fungal cell membrane affecting compound so the combination gave 50% inhibition of spore germination.
(§3) Dose response curves were determined for each antifungal fungal cell membrane affecting compound and for each fungal cell wall degrading enzyme singly. Then each fungal cell wall degrading enzyme at a concentration giving 10% inhibition when used alone was combined with increasing amounts of antifungal fungal cell membrane affecting compound. Then the concentration of antifungal fungal cell membrane affecting compound causing the ED50 for each combination was calculated by probit analysis of data collected from two experiments with three treatment replicates for each experiment. Assays for inhibition of spore germination were carried out as described in the summary of invention section above.
The relative level of synergism (RS below) for each combination was calculated by applying Limpel's formula: Ee=X+Y−(XY/100) as described in Richer, D. L, Pestic. Sci. 19, 309-315, 1987. In Limpel's formula, X and Y are the percentages of inhibition relative to each compound used alone and Ee is the expected effect for an additional (non-synergistic) effect. If the combination of the two agents produces an observed effect (Eo) greater than Ee, synergism exists, and as the difference between Eo and Ee increases, the level of synergism is greater. […]

Botrytis cinerea = test: Inhibition of spore germination, Eppendorf tube assay (Examples I and II); format: cell-based; conditions: for inhibition at 0.5 µg/mL: read-out: % inhibition; for % inhibition: enzyme 0 μg ml^−1 (fungicide alone); for % inhibition / Ee, expected effect from an additive response according to Limpel's formula, percent inhibition / Io, percent inhibition observed: flusilazole 5 ng ml^−1, miconazole 0.5 μg ml^−1; for ED50 of fungicide (dose effective for 50% inhibition): Table 9
[2] = test system: Fusarium oxysporum strain FOP1; test: Inhibition of spore germination, ELISA plate assay (Examples V-XIV, XVII); format: cell-based; conditions: Table 28; concentration of flusilazole for 50% inhibition, alone or with enzyme at its ED10 concentration
Experimental: as §1, §2, §3
The relative level of synergism (RS below) for each combination was calculated by applying Limpel's formula: Ee=X+Y−(XY/100) as described in Richer, D. L, Pestic. Sci. 19, 309-315, 1987. In Limpel's formula, X and Y are the percentages of inhibition relative to each compound used alone and Ee is the expected effect for an additional (non-synergistic) effect. If the combination of the two agents produces an observed effect (Eo) greater than Ee, synergism exists, and as the difference between Eo and Ee increases, the level of synergism is greater. In this experiment, the X value (percentage inhibition by fungal cell wall degrading enzyme when used alone was chosen to be 10 (10% inhibition of spore germination when used alone) and the observed effect, Eo, was 50 (i.e., 50% inhibition of spore germination). The Y values were obtained from the determined concentrations of antifungal cell membrane affecting compound causing the ED50 for a combination and the dose response curves for the antifungal cell membrane affecting compound used alone—i.e., the Y value was the percent inhibition for the antifungal fungal cell membrane affecting compound when used alone for the concentration of antifungal fungal cell membrane affecting compound that was determined to cause the ED50 for the combination. Ee values were then calculated from Limpel's formula. […]

With `C[Si](Cn1cncn1)(c1ccc(F)cc1)c1ccc(F)cc1` [Flusilazole, flusilazole] the “solubility (solvent in which the substance dissolves)” value [1] was “dissolve in acetone”, the ED50 (B. cinerea strain 12) was 68 (61-85) ng ml^−1 and the inhibition at 5 ng/mL (Botrytis cinerea; Botrytis cinerea, Table 5, endochitinase from G. virens strain 41 at 25 μg ml^−1, with flusilazole 5 ng ml^−1, miconazole 0.5 μg ml^−1 or none (enzyme alone)) was 89%. The inhibition at 0.5 µg/mL (Botrytis cinerea; Table 4, endochitinase from T. harzianum strain P1 at 75 μg ml^−1, with flusilazole 5 ng ml^−1, miconazole 0.5 μg ml^−1 or none (enzyme alone)) was 100%, the “% inhibition” value (Botrytis cinerea; Table 4) was 18% and the “% inhibition” value (Botrytis cinerea; Table 5) was 18%. The inhibition at 0.5 µg/mL (Botrytis cinerea; Table 6, chitobiosidase from T. harzianum strain P1 at 75 μg ml^−1, with flusilazole 5 ng ml^−1, miconazole 0.5 μg ml^−1 or none (enzyme alone)) was 100%, the “% inhibition” value (Botrytis cinerea; Table 6) was 18% and the “% inhibition” value (Botrytis cinerea; Table 7) was 18%. The inhibition at 0.5 µg/mL (Botrytis cinerea; Table 7, glucan 1,3-β-glucosidase from T. harzianum strain P1 at 100 μg ml^−1, with flusilazole 5 ng ml^−1, miconazole 0.5 μg ml^−1 or none (enzyme alone)) was 100%, the “ED50 of fungicide (dose effective for 50% inhibition)” value (Botrytis cinerea; no endochitinase (0 μg ml^−1)) was 60 ng/mL and the “ED50 of fungicide (dose effective for 50% inhibition)” value (Botrytis cinerea; with endochitinase from T. harzianum strain P1 at 10 μg ml^−1) was 0.7 ng/mL. The “ED50 of fungicide (dose effective for 50% inhibition)” value (Botrytis cinerea; with endochitinase from T. harzianum strain P1 at 25 μg ml^−1) was 0.3 ng/mL, the ED50 of fungicide (Botrytis cinerea; Table 10, no chitobiosidase (0 μg ml^−1)) was 60 ng/mL and the ED50 of fungicide (Botrytis cinerea; Table 10, with chitobiosidase from T. harzianum strain P1 at 25 μg ml^−1) was 1 ng/mL. The ED50 of fungicide (Botrytis cinerea; Table 10, with chitobiosidase from T. harzianum strain P1 at 50 μg ml^−1) was 0.4 ng/mL, the ED50 of fungicide (Botrytis cinerea; Table 10, with chitobiosidase from T. harzianum strain P1 at 75 μg ml^−1) was 0.35 ng/mL and the ED50 of fungicide (Botrytis cinerea; Table 10, with chitobiosidase from T. harzianum strain P1 at 100 μg ml^−1) was 0.3 ng/mL. The ED50 of fungicide (Botrytis cinerea; Table 11, no glucosidase (0 μg ml^−1)) was 60 ng/mL, the ED50 of fungicide (Botrytis cinerea; Table 11, with glucan 1,3-β-glucosidase from T. harzianum strain P1 at 25 μg ml^−1) was 3.3 ng/mL and the ED50 of fungicide (Botrytis cinerea; Table 11, with glucan 1,3-β-glucosidase from T. harzianum strain P1 at 50 μg ml^−1) was 1 ng/mL. The ED50 of fungicide (Botrytis cinerea; Table 11, with glucan 1,3-β-glucosidase from T. harzianum strain P1 at 75 μg ml^−1) was 0.17 ng/mL, the ED50 of fungicide (Botrytis cinerea; Table 12, no endochitinase (0 μg ml^−1)) was 60 ng/mL and the ED50 of fungicide (Botrytis cinerea; Table 12, with endochitinase from G. virens strain 41 at 25 μg ml^−1) was 2.5 ng/mL. The ED50 of fungicide (Botrytis cinerea; Table 12, with endochitinase from G. virens strain 41 at 50 μg ml^−1) was 1 ng/mL, the ED50 of fungicide (Botrytis cinerea; Table 12, with endochitinase from G. virens strain 41 at 75 μg ml^−1) was 4.5 ng/mL and the ED50 of fungicide (Botrytis cinerea; Table 12, with endochitinase from G. virens strain 41 at 100 μg ml^−1) was 0.22 ng/mL. For the same compound, the “Ee, expected effect from an additive response according to Limpel's formula, percent inhibition” value (shortened to “Ee, expected effect … percent inhibition”) (Botrytis cinerea; with Chitob. (P1) 25 μg ml^−1) was 27%, the “Io, percent inhibition observed” value (Botrytis cinerea; with Endoc. (41) 25 pg ml^−1 (so in the source)) was 67% and the “Ee, expected effect … percent inhibition” value (Botrytis cinerea; with Endoc. (P1) 25 μg ml^−1) was 41%. For the same compound, the “Ee, expected effect … percent inhibition” value (Botrytis cinerea; with Glucan. (P1) 25 μg ml^−1) was 22.1%, the “Io, percent inhibition observed” value (Botrytis cinerea; with Glucan. (P1) 25 μg ml^−1) was 65% and the ED50 [2] was 59.0 (51-65) ng ml^−1.
